Test results: paper PMC7381729, “A new class of PentixaFor- and PentixaTher-based theranostic agents with enhanced CXCR4-targeting efficiency” (Theranostics, 2020)
Like-named read-outs stand apart in the source and are kept apart here. Where a SMILES comes first, the peptide text is derived from it. Side-chain parts run from the residue outwards. [ ]: non-standard residue; d: D form. The star is where a group is joined. DOTA = O=C(O)CN1CCN(CC(=O)O)CCN(CC(=O)*)CCN(CC(=O)O)CC1; dTyr(3-I) = N[C@H](Cc1ccc(O)c(I)c1)C(=O)O; 2Nal = N[C@@H](Cc1ccc2ccccc2c1)C(=O)O; dNMeOrn = CN[C@H](CCCN)C(=O)O; 4Abz = Nc1ccc(C(=O)O)cc1

Experiments:
human CXCR4 (hCXCR4) = target: T1, human CXCR4 (hCXCR4) (Homo sapiens, UniProt P61073); assay: Competition binding to hCXCR4, Jurkat cells, [125I]FC-131 as radioligand; conditions: Jurkat cells 400.000 cells/sample, means ± SD of min. three separate experiments
T1 construct: hCXCR4-expressing Jurkat human T-cell leukemia cells; endogenous in cells; host or cells: Jurkat human T-cell leukemia cells (whole cells)
Experimental: Experiments were performed in triplicate with n=3 per concentration in each experiment. IC50 values were calculated using GraphPad Prism 6.01 (Graph Pad Software, San Diego, USA).
Figure 2 Binding affinities (IC50 in nM) of the respective ^natGa-, ^natLu-, ^natY- and ^natBi-complexes of PentixaFor (entry 1), PentixaTher (entry 2) and a series of CPCR4-(blue) and iodoCPCR4-(black) derived analogs with modified linker structure (entries 3-14) to human CXCR4 (hCXCR4). […] Each experiment was performed in triplicate, and results are means ± SD from a minimum of three separate experiments. TEXT PRINTED IN THE PICTURE: 1: ^natGa-complex IC50 [nM]: 24.8 ± 2.5; ^natLu-complex IC50 [nM]: 41 ± 12; ^natY-complex IC50 [nM]: 40 ± 27 | 2: ^natGa-complex IC50 [nM]: 6.1 ± 1.5; ^natLu-complex IC50 [nM]: 14.6 ± 1.0; ^natY-complex IC50 [nM]: 20.4 ± 0.3; ^natBi-complex IC50 [nM]: 24.4 ± 3.7 | 3: ^natGa-complex IC50 [nM]: 282 ± 90; ^natLu-complex IC50 [nM]: 12.5 ± 3.2; ^natY-complex IC50 [nM]: 216 ± 33; ^natBi-complex IC50 [nM]: 27 ± 14 | 4: ^natGa-complex IC50 [nM]: 14.4 ± 0.3; ^natLu-complex IC50 [nM]: 28 ± 9; ^natY-complex IC50 [nM]: 83 ± 30 | 5: ^natLu-complex IC50 [nM]: 106 ± 10 | 6: ^natGa-complex IC50 [nM]: 7.9 ± 1.1; ^natLu-complex IC50 [nM]: 5.9 ± 0.3; ^natY-complex IC50 [nM]: 6.7 ± 1.2; ^natBi-complex IC50 [nM]: 14.5 ± 0.2 | 7: ^natGa-complex IC50 [nM]: 47 ± 8; ^natLu-complex IC50 [nM]: 39 ± 1; ^natY-complex IC50 [nM]: 43 ± 2 | 8: ^natGa-complex IC50 [nM]: 3.6 ± 0.7; ^natLu-complex IC50 [nM]: 3.5 ± 0.3; ^natY-complex IC50 [nM]: 4.1 ± 1.3; ^natBi-complex IC50 [nM]: 3.5 ± 0.4 | 9: ^natGa-complex IC50 [nM]: 8.9 ± 3.8; ^natLu-complex IC50 [nM]: 8.0 ± 3.1; ^natY-complex IC50 [nM]: 6.3 ± 2.5 | 10: ^natGa-complex IC50 [nM]: 2.4 ± 0.1; ^natLu-complex IC50 [nM]: 3.6 ± 1.1; ^natY-complex IC50 [nM]: 2.4 ± 0.2; ^natBi-complex IC50 [nM]: 38 ± 25 | 11: ^natGa-complex IC50 [nM]: 9.7 ± 2.8; ^natLu-complex IC50 [nM]: 5.4 ± 1.6; ^natY-complex IC50 [nM]: 8.7 ± 2.9 | 12: ^natGa-complex IC50 [nM]: 1.4 ± 0.2; ^natLu-complex IC50 [nM]: 2.1 ± 0.3; ^natY-complex IC50 [nM]: 2.1 ± 0.3; ^natBi-complex IC50 [nM]: 2.9 ± 0.1 | 13: ^natGa-complex IC50 [nM]: 0.4 ± 0.1; ^natLu-complex IC50 [nM]: 1.5 ± 0.1; ^natY-complex IC50 [nM]: 1.5 ± 0.1 | 14: ^natGa-complex IC50 [nM]: 2.6 ± 1.0; ^natLu-complex IC50 [nM]: 1.7 ± 0.6; ^natY-complex IC50 [nM]: 1.6 ± 0.5; ^natBi-complex IC50 [nM]: 1.8 ± 0.8

[1] = Biodistribution in Daudi xenograft bearing mice; type: in vivo, mouse; conditions: female, CB-17 SCID, mouse, iv, total radioactivity, means ± SD; for tissue uptake at 6 h: 6h p.i.; for tissue uptake at 48 h / tissue to tissue ratio at 48 h: 48h p.i.; for tissue to tissue ratio at 48 h: n=4-5 animals
Experimental: The biodistribution of selected compounds was investigated in Daudi (human B-cell lymphoma) xenograft bearing female CB-17 SCID mice (6-8 weeks, Charles River, Sulzfeld, Germany), [29]. All animal experiments were performed in accordance with current animal welfare regulations in Germany (approval #55.2-1-54-2532-71-13).
Animals (n=4-5 per group) were injected intravenously with 5-10 MBq (0.08-0.11 nmol peptide per mouse) of the respective ^68Ga- and^ 177Lu-labeled CXCR4 ligands in PBS (100 µL) into the tail vein under isoflurane anesthesia. CXCR4-specificity of binding was determined by coinjection of 50 µg AMD3100 per mouse. The animals were sacrificed 1, 6 and 48h post injection (p.i.), and the organs of interest were dissected. The radioactivity was measured in weighted tissue samples using a γ-counter. Data are expressed in % ID/g tissue (mean ± SD).

[2] = natGa-complex, read-out: ^natGa-complex IC50 to hCXCR4
[3] = natLu-complex, read-out: ^natLu-complex IC50 to hCXCR4
[4] = natY-complex, read-out: ^natY-complex IC50 to hCXCR4
[5] = adrenals, i.v., n=4-5, read-out: Biodistribution adrenals
[6] = blood, i.v., n=4-5, read-out: Biodistribution blood
[7] = colon, i.v., n=4-5, read-out: Biodistribution colon
[8] = femur, i.v., n=4-5, read-out: Biodistribution femur
[9] = heart, i.v., n=4-5, read-out: Biodistribution heart
[10] = kidney, i.v., n=4-5, read-out: Biodistribution kidney
[11] = liver, i.v., n=4-5, read-out: Biodistribution liver
[12] = lung, i.v., n=4-5, read-out: Biodistribution lung
[13] = muscle, i.v., n=4-5, read-out: Biodistribution muscle
[14] = pancreas, i.v., n=4-5, read-out: Biodistribution pancreas
[15] = small intestine, i.v., n=4-5, read-out: Biodistribution small intestine
[16] = spleen, i.v., n=4-5, read-out: Biodistribution spleen
[17] = stomach, i.v., n=4-5, read-out: Biodistribution stomach
[18] = tumor (Daudi xenograft), i.v., n=4-5, read-out: Biodistribution tumor (Daudi xenograft)

T1 sequence (P61073 whole entry): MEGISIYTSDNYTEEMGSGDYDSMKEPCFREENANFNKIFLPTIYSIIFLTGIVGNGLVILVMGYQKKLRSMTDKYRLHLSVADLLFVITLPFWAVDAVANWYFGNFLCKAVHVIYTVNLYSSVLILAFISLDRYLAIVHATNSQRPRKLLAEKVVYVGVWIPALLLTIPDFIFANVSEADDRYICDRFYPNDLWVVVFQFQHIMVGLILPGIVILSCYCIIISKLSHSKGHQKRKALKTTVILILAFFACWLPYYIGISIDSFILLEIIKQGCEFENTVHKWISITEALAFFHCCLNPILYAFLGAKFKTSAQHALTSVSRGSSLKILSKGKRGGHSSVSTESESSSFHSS

DOTA-k-G-ABA-iodoCPCR4 (head to tail) [entry 10]
IC50 (human CXCR4 (hCXCR4); natBi-complex, read-out: ^natBi-complex IC50 to hCXCR4): 0.038 ± 0.025 µM | IC50 (human CXCR4 (hCXCR4); [2]): 0.0024 ± 0.0001 µM | IC50 (human CXCR4 (hCXCR4); [3]): 0.0036 ± 0.0011 µM | IC50 (human CXCR4 (hCXCR4); [4]): 0.0024 ± 0.0002 µM

DOTAGA-G-ABA-iodoCPCR4 (head to tail) [entry 7]
IC50 (human CXCR4 (hCXCR4); [2]): 0.047 ± 0.008 µM | IC50 (human CXCR4 (hCXCR4); [3]): 0.039 ± 0.001 µM | IC50 (human CXCR4 (hCXCR4); [4]): 0.043 ± 0.002 µM

DOTAGA-ABA-iodoCPCR4 (head to tail) [entry 4]
IC50 (human CXCR4 (hCXCR4); [2]): 0.0144 ± 0.0003 µM | IC50 (human CXCR4 (hCXCR4); [3]): 0.028 ± 0.009 µM | IC50 (human CXCR4 (hCXCR4); [4]): 0.083 ± 0.03 µM

C[C@@H](NC(=O)[C@@H](CCCNC(=N)N)NC(=O)CN1CCN(CC(=O)O)CCN(CC(=O)O)CCN(CC(=O)O)CC1)C(=O)Nc1ccc(C(=O)NCCC[C@@H]2C(=O)N[C@@H](CCCNC(=N)N)C(=O)N[C@@H](Cc3ccc4ccccc4c3)C(=O)NCC(=O)N[C@H](Cc3ccc(O)c(I)c3)C(=O)N2C)cc1 [[^177Lu]DOTA-r-a-ABA-iodoCPCR4, metal not drawn] (cyclo([2Nal]G[dTyr(3-I)][dNMeOrn]([4Abz-dA-dR-DOTA])R))
tissue uptake at 6 h [1, 5]: 0.68 ± 0.21 %ID/g | tissue uptake at 48 h [1, 5]: 0.6 ± 0.12 %ID/g | tissue uptake at 6 h [1, 6]: 0.17 ± 0.09 %ID/g | tissue uptake at 48 h [1, 6]: 0.03 ± 0.01 %ID/g | tissue uptake at 1 h ([1]; brain, 1h p.i., tracer only, i.v., γ-counter, n=4-5, read-out: Biodistribution brain): 0.08 ± 0.01 %ID/g | tissue uptake at 6 h [1, 7]: 0.49 ± 0.2 %ID/g | tissue uptake at 48 h [1, 7]: 0.43 ± 0.3 %ID/g | tissue uptake at 6 h [1, 8]: 0.56 ± 0.23 %ID/g | tissue uptake at 48 h [1, 8]: 0.34 ± 0.08 %ID/g | tissue uptake at 6 h [1, 9]: 0.28 ± 0.05 %ID/g | tissue uptake at 48 h [1, 9]: 0.19 ± 0.02 %ID/g | tissue uptake at 6 h [1, 10]: 3.2 ± 0.45 %ID/g | tissue uptake at 48 h [1, 10]: 2.58 ± 0.69 %ID/g | tissue uptake at 6 h [1, 11]: 17.1 ± 3.09 %ID/g | tissue uptake at 48 h [1, 11]: 14.6 ± 2 %ID/g | tissue uptake at 6 h [1, 12]: 1.07 ± 0.26 %ID/g | tissue uptake at 48 h [1, 12]: 0.57 ± 0.04 %ID/g | tissue uptake at 6 h [1, 13]: 0.06 ± 0.01 %ID/g | tissue uptake at 48 h [1, 13]: 0.04 %ID/g | tissue uptake at 6 h [1, 14]: 0.11 ± 0.02 %ID/g | tissue uptake at 48 h [1, 14]: 0.09 ± 0.01 %ID/g | tissue uptake at 6 h [1, 15]: 0.24 ± 0.06 %ID/g | tissue uptake at 48 h [1, 15]: 0.16 ± 0.06 %ID/g | tissue uptake at 6 h [1, 16]: 2.95 ± 0.75 %ID/g | tissue uptake at 48 h [1, 16]: 2.72 ± 0.5 %ID/g | tissue uptake at 6 h [1, 17]: 0.25 ± 0.09 %ID/g | tissue uptake at 48 h [1, 17]: 0.14 ± 0.02 %ID/g | tissue uptake at 6 h [1, 18]: 12.5 ± 2.56 %ID/g | tissue uptake at 48 h [1, 18]: 8.11 ± 0.96 %ID/g | tissue to tissue ratio at 48 h ([1]; tumor / blood, read-out: Tumor/organ ratio t/blood): 320 ± 104 | tissue to tissue ratio at 48 h ([1]; tumor / colon, read-out: Tumor/organ ratio t/colon): 19 ± 13 | tissue to tissue ratio at 48 h ([1]; tumor / heart, read-out: Tumor/organ ratio t/heart): 42 ± 7 | tissue to tissue ratio at 48 h ([1]; tumor / kidney, read-out: Tumor/organ ratio t/kidney): 3.1 ± 0.9 | tissue to tissue ratio at 48 h ([1]; tumor / liver, read-out: Tumor/organ ratio t/liver): 0.6 ± 0.1 | tissue to tissue ratio at 48 h ([1]; tumor / lung, read-out: Tumor/organ ratio t/lung): 14 ± 2 | tissue to tissue ratio at 48 h ([1]; tumor / muscle, read-out: Tumor/organ ratio t/muscle): 226 ± 36 | tissue to tissue ratio at 48 h ([1]; tumor / small intestine, read-out: Tumor/organ ratio t/small intestine): 50 ± 20 | tissue to tissue ratio at 48 h ([1]; tumor / spleen, read-out: Tumor/organ ratio t/spleen): 3 ± 0.7 | tissue to tissue ratio at 48 h ([1]; tumor / stomach, read-out: Tumor/organ ratio t/stomach): 58 ± 12
